The target in one experiment is truncated Polθ protein (Polθ-Hel containing the helicase domain (67-894)) (Homo sapiens (Human), UniProt O75417). Kind of experiment: Polθ ATPase assay (Biological Assay 1, ADP-Glo luminescence). The settings on record: Polθ-Hel 0.5 nM, DNA substrate 500 nM, ATP 60 μM, 23° C.; read-out: Pole ATPase assay IC50. It counts as biochemical. The procedure, abridged:
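Polθ-Hel (0.5 nM) with 500 nM ssDNA oligo in pH 8.8 Tris buffer (5 mM MgCl2, 1 mM DTT) was preincubated with compound 30 min at 23 °C. The reaction ran 60 min after 60 μM ATP was added (stated as the added solution, not final). ADP formed was detected by ADP-Glo luminescence to derive IC50.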
(In ADP-Glo the light output rises with the ADP produced.)
Sequence of truncated Polθ protein (Polθ-Hel containing the helicase domain (67-894)) (O75417 67-894): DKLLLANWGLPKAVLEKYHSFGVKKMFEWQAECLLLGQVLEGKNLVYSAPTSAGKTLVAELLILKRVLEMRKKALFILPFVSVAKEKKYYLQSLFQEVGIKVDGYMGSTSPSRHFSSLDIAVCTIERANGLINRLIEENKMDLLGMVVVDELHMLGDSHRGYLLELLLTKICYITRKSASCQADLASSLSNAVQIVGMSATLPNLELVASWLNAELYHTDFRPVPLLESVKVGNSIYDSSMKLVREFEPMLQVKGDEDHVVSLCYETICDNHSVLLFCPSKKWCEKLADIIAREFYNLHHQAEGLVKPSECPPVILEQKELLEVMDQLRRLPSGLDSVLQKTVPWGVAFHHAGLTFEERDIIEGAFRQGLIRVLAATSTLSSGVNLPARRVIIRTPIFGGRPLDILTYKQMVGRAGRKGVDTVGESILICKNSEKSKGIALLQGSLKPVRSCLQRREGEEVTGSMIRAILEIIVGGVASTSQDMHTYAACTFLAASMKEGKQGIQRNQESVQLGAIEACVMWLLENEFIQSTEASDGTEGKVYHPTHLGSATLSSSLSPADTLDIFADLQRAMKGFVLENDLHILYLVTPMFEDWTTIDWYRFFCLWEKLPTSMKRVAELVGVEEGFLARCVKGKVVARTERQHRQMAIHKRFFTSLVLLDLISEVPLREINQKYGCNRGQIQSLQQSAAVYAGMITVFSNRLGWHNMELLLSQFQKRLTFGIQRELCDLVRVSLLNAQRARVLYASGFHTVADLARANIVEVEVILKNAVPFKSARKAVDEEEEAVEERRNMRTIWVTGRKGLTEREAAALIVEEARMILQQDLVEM
Take `COc1cnc(Cl)cc1-c1cc(C)ncc1C(=O)Nc1nc2ncc(N3CCCCC3=O)cc2s1` [Example 70]: the IC50 (in general, the concentration that inhibits the measured activity by half) is less than 100 nM.
On the same count and under the same terms, the value for `COc1cnc(Cl)cc1-c1cc(C)ncc1C(=O)Nc1nc2ccc(N3CC[C@@H](O)CC3=O)cc2s1` [Example 85, 2′-chloro-N-{6-[(4R)-4-hydroxy-2-oxopiperidin-1-yl]-1,3-benzothiazol-2-yl}-5′-methoxy-6-methyl-[4,4′-bipyridine]-3-carboxamide] was less than 100 nM.
Same read-out and setting: the value for `COc1cnc(Cl)cc1-c1cc(C)ncc1C(=O)Nc1nc2ccc(N3CCNC3=O)cc2s1` [Example 60, 2′-chloro-5′-methoxy-6-methyl-N-[6-(2-oxoimidazolidin-1-yl)-1,3-benzothiazol-2-yl]-[4,4′-bipyridine]-3-carboxamide] was less than 100 nM; that for `COc1cnc(Cl)cc1-c1cc(C)ncc1C(=O)Nc1nc2ccc(SC)cc2s1` [Example 43, 2′-chloro-5′-methoxy-6-methyl-N-[6-(methylsulfanyl)-1,3-benzothiazol-2-yl]-[4,4′-bipyridine]-3-carboxamide] was less than 100 nM; that for `COc1cnc(Cl)cc1-c1cc(C)ncc1C(=O)Nc1nc2ccc(N3CCCS3(=O)=O)cc2s1` [Example 84] was less than 100 nM.
As to `COc1ccccc1-c1cnccc1C(=O)Nc1nc2ncccc2s1` [Example 11, 3-(2-methoxyphenyl)-N-{[1,3]thiazolo[4,5-b]pyridin-2-yl}pyridine-4-carboxamide], the IC50 is more than 1000 nM.
On the same count and under the same terms, the same measure for `COc1cnc(Cl)cc1-c1cc(C)ncc1C(=O)Nc1nc2cnc(Cl)cc2s1` [Example 64, 2′-chloro-N-{6-chloro-[1,3]thiazolo[4,5-c]pyridin-2-yl}-5′-methoxy-6-methyl-[4,4′-bipyridine]-3-carboxamide]: less than 100 nM; for `COc1cnc(Cl)cc1-c1cc(C)ncc1C(=O)Nc1nc2cnc(NC3CCC3)nc2s1` [Example 79, 2′-chloro-N-[5-(cyclobutylamino)-[1,3]thiazolo[5,4-d]pyrimidin-2-yl]-5′-methoxy-6-methyl-[4,4′-bipyridine]-3-carboxamide]: less than 100 nM.
Still for that read-out and setting: the same measure for `COc1cnc(Cl)cc1-c1cc(C)ncc1C(=O)Nc1nc2cnc(Cl)nc2s1` [Example 6, 2′-chloro-N-{5-chloro-[1,3]thiazolo[5,4-d]pyrimidin-2-yl}-5′-methoxy-6-methyl-[4,4′-bipyridine]-3-carboxamide]: less than 100 nM.

The experiment is the same for the next values; noted with them: Table B; compounds of Experimental Part B, in vitro; read-out: Polθ ATPase assay IC50.
As for `COc1ccc2sc(NC(=O)c3cnc(C)cc3-c3cc(Cl)ncc3OC)nc2c1` [Example 106, 2′-chloro-5′-methoxy-N-(5-methoxy-1,3-benzothiazol-2-yl)-6-methyl-[4,4′-bipyridine]-3-carboxamide], the half-maximal inhibitory concentration (IC50) is less than 100 nM.
Same read-out and setting: the same measure for `COc1cnc(Cl)cc1-c1cc(C)ncc1C(=O)Nc1nc2cc(OCCOC(F)(F)F)ccc2s1` [Example 115, 2′-chloro-5′-methoxy-6-methyl-N-{5-[2-(trifluoromethoxy)ethoxy]-1,3-benzothiazol-2-yl}-[4,4′-bipyridine]-3-carboxamide]: 100 to 1000 nM; for `COc1cnc(C(F)(F)F)cc1-c1cc(CC(=O)N(C)C)ncc1C(=O)Nc1nc2cncnc2s1` [Example 116, 6-[(dimethylcarbamoyl)methyl]-5′-methoxy-N-{[1,3]thiazolo[5,4d]pyrimidin-2-yl}-2′-(trifluoromethyl)-[4,4′-bipyridine]-3-carboxamide]: less than 100 nM; for `COc1cnc(Cl)cc1-c1cc(C)ncc1C(=O)Nc1nc2cnc(NCC(C)(C)O)cc2s1` [Example 130, 2′-chloro-N-{6-[(2-hydroxy-2-methylpropyl)amino]-[1,3]thiazolo[4,5-c]pyridin-2-yl}-5′-methoxy-6-methyl-[4,4′-bipyridine]-3 carboxamide]: less than 100 nM.
As for `COc1cnc(Cl)cc1-c1cc(C)ncc1C(=O)Nc1nc2c(C)nc(N3CCC(O)CC3)nc2s1` [Example 132, 2′-chloro-N-[5-(4-hydroxypiperidin-1-yl)-7-methyl-[1,3]thiazolo[5,4-d]pyrimidin-2-yl]-5′-methoxy-6-methyl-[4,4′-bipyridine]-3-carboxamide], the IC50 was less than 100 nM.
On to `CNC(=O)c1ccc2sc(NC(=O)c3cnc(C)cc3-c3cc(Cl)ncc3OC)nc2c1` [Example 105, 2′-chloro-5′-methoxy-6-methyl-N-[5-(methylcarbamoyl)-1,3-benzothiazol-2-yl]-[4,4′-bipyridine]-3-carboxamide], for which the IC50 was less than 100 nM.
